# According to patent US20260200901A1, “NOVEL COMPOUNDS AS MODULATORS OF NLRP3 INHIBITION” (Hoffmann-La Roche Inc., priority 2022, published 2026):
# Counter-ions that a name gives are not always drawn.
# Experiments:
# NLRP3 [1] = molecular target: T1, NLRP3 (Homo sapiens, UniProt Q96P20); experiment: THP-1 cells pyroptosis assay
# Method: The cells were routinely passaged and grown to confluency (~10^6 cells/ml). On the day of the experiment, THP-1 cells were harvested and resuspended into RPMI medium (without FBS). […] To this diluted cell solution was added LPS (Sigma #L4524) to give a 1 μg/ml Final Assay Concentration (FAC). 40 μl of the final preparation was aliquoted into each well of a 96-well plate. The plate thus prepared was used for compound screening.
# NLRP3 [2] = molecular target: T1, NLRP3; experiment: Human whole blood IL-1β release assay; type: cell-based; parameters: Human whole blood in Li-heparin tubes was obtained from healthy donors; from tissue; host or cells: human whole blood from healthy donors; settings: LPS 1 μg/ml, nigericin 10 μM, IL-1β AlphaLisa
# Excerpt: For systemic delivery, the ability to inhibit NLRP3 when the compounds are present within the bloodstream is of great importance.
# [3] = molecular target: T2, hERG cardiac potassium channel (Homo sapiens, UniProt Q12809); experiment: hERG screening assay (automated patch clamp, CHO crelox hERG cells); type: cell-based; settings: whole-cell patch clamp, 35-37° C.
# T2 construct: host or cells: CHO crelox hERG cell line (Chinese hamster)
# Excerpt: In the drug development process of small molecules, one of the most frequent adverse side effects, leading to the failure of drugs, is the cardiac arrhythmias. […] Having no or low inhibition of the hERG cardiac potassium channel is therefore considered as beneficial.
# Ready-to-use frozen instant CHO-hERG cells were cryopreserved at Evotec (Germany) and used directly in the experiments.
# The extracellular solution contains (in mM): NaCl 150; KCl 4; CaCl2 1; MgCl2 1; HEPES 10; pH 7.2-7.4 with NaOH, osmolarity 290-330 mOsm. The internal solution contains (in mM): KCl, 10; KF, 100; NaCl, 10; HEPES, 10; EGTA, 20; pH=7.0-7.4 with KOH, osmolarity 260-300 mOsm.
# The effects of a compound on hERG K+-currents parameters will be evaluated at 2 concentrations in at least 4 cells.
# K+ currents are measured with the patch-voltage-clamp technique in the whole-cell configuration at 35-37° C.
# The amplitudes of IKhERG were recorded in each concentration of drug and they were compared to the vehicle control values (taken as 100%) to define fractional blocks. The concentration-response data were fitted with the following relationship:
# Concentration-response curves were fitted by non-linear regression analysis using EworkBook suite (ID Business Solutions Ltd, UK). Data fit was done with the 4 Parameter Logistic Model (fit=(A+(B/(1+((x/C)^D)))), where A=0 and B=100).
# human P-gp = molecular target: T3, human P-gp (Homo sapiens, UniProt P08183); experiment: Transcellular human P-gp assay (transfected LLC-PK1 cells); type: in vitro ADME; settings: LLC-PK1 cells over-expressing human P-gp
# T3 construct: expressed in transfected cells; host or cells: LLC-PK1 cells (porcine kidney epithelial cells)
# Excerpt: The general assay uses transfected LLC-PK1 cells (porcine kidney epithelial cells) over-expressing human or mouse P-gp, cultured on 96 well semi-permeable filter membrane plates, where they form a polarized monolayer with tight junctions, and act as a barrier between the apical and basolateral compartment.
# P-gp is expressed in the apical-facing membrane of the monolayer.
# T1 sequence (Q96P20 whole entry): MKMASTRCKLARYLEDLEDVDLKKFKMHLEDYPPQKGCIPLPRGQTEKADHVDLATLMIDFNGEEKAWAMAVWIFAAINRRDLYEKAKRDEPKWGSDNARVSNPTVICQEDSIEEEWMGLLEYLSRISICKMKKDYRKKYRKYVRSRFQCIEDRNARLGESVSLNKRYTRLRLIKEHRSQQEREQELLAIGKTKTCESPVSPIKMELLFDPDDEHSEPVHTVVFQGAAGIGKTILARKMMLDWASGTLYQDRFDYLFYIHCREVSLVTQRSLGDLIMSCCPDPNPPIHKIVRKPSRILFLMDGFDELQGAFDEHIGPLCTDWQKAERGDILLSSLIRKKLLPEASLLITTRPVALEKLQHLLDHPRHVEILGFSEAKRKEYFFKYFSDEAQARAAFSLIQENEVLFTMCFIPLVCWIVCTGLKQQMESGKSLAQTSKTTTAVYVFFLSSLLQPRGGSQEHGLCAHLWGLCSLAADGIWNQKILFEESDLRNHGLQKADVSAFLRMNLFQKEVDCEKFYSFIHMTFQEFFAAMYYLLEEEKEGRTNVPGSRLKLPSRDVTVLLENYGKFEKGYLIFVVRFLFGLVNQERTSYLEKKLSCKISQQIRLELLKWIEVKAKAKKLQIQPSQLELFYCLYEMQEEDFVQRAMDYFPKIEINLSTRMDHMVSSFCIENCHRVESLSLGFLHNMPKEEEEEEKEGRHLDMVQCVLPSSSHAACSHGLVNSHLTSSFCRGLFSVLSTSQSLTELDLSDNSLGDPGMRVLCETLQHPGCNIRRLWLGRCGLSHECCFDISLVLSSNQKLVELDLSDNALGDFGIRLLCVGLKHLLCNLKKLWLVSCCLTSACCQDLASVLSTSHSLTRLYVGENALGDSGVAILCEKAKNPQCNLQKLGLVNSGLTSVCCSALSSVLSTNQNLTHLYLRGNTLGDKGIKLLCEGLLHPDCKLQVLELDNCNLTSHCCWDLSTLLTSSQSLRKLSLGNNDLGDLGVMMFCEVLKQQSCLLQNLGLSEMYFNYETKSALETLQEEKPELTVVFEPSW
# T3 sequence (P08183 whole entry): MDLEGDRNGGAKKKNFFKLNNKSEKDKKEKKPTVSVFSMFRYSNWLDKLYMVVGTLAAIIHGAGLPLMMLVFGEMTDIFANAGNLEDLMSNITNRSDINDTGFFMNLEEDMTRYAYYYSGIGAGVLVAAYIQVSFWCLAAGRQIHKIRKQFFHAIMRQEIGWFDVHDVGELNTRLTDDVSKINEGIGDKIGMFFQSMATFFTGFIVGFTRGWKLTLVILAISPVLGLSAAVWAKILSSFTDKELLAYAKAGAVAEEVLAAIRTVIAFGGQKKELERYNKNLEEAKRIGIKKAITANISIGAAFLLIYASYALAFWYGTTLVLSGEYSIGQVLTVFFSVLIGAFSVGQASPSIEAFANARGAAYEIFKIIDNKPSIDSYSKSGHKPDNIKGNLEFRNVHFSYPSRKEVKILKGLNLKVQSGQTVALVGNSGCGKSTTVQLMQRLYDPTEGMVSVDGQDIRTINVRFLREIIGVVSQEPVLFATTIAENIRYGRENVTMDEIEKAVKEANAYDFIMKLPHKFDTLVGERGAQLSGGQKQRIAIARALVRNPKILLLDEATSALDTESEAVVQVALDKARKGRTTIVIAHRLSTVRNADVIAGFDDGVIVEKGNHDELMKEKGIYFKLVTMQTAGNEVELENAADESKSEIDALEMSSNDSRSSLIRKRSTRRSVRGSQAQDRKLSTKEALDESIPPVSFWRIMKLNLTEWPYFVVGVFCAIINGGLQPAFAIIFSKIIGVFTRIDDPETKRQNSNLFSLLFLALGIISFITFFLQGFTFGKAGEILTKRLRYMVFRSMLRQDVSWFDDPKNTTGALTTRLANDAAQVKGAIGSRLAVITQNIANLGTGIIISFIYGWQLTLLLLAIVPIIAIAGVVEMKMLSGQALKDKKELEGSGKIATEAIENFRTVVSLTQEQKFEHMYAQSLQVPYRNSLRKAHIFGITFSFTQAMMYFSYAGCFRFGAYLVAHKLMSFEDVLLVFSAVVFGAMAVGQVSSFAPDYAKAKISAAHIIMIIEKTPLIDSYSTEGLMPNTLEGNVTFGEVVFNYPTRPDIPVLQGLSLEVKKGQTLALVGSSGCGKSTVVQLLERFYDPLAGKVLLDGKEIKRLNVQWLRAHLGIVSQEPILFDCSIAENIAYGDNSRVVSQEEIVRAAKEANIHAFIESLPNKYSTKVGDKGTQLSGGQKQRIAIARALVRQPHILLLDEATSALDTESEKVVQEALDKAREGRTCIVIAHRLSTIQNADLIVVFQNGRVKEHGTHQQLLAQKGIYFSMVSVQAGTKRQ
# T2 sequence (Q12809 whole entry): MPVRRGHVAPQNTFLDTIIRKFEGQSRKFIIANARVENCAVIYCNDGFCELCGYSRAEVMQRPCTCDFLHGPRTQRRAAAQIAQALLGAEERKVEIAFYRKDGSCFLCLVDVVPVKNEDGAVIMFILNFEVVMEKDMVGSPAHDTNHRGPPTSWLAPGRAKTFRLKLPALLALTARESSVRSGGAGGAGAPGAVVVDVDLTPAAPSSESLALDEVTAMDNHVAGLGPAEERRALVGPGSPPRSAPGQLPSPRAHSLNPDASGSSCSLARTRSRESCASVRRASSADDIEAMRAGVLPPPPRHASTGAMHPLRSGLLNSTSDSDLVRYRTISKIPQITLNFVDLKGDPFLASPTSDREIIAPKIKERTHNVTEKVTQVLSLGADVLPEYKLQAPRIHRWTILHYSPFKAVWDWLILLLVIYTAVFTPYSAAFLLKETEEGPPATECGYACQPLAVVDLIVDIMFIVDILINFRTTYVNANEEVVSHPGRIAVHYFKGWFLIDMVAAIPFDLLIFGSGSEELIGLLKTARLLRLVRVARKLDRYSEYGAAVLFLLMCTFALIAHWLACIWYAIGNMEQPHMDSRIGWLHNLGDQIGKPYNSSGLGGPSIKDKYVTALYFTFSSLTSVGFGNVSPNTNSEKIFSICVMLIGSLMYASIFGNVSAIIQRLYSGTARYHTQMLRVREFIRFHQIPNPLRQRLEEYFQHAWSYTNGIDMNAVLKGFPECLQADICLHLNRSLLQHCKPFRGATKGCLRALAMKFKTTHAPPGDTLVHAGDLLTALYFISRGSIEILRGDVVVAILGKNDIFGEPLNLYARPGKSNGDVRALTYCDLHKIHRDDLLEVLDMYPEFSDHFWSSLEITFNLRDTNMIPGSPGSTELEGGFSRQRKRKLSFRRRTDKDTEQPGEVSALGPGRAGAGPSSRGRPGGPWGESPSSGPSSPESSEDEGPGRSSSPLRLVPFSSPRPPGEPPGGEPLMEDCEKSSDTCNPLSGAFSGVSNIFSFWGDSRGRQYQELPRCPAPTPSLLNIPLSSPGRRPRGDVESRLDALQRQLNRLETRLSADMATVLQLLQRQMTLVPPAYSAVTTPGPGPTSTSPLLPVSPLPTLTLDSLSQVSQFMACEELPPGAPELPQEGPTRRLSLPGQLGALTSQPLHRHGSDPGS
SMILES,IC50 (NLRP3 [1]) [nM],IC50 (NLRP3 [2]) [nM],IC20 [3] [nM],efflux ratio (human P-gp; read-out: ER (efflux ratio)),Papp (human P-gp; read-out: Permeability) [×10⁻⁶ cm/s]
"Cc1nc(N[C@@H]2CCCN(CCCC(=O)N3CCC(O)C3)C2)nnc1-c1ccc2c(c1O)CCO2 (mixture of isomers) [Example 15, 1-(3-Hydroxypyrrolidin-1-yl)-4-[rac-(3R)-3-[[6-(4-hydroxy-2,3-dihydrobenzofuran-5-yl)-5-methyl-1,2,4-triazin-3-yl]amino]-1-piperidyl]butan-1-one; formic acid]",58,33,–,–,–
"Cc1nc(N[C@@H]2CCCN(CC3(O)CC3)C2)nnc1-c1ccc2c(c1O)CCO2 [Example 4, 5-[3-[[(3R)-1-[(1-Hydroxycyclopropyl)methyl]-3-piperidyl]amino]-5-methyl-1,2,4-triazin-6-yl]-2,3-dihydrobenzofuran-4-ol]",17,33,–,–,–
"COCCN1CCC[C@@H](Nc2nnc(-c3ccc4c(c3O)CCO4)c(C)n2)C1 [Example 5, 5-[3-[[(3R)-1-(2-Methoxyethyl)-3-piperidyl]amino]-5-methyl-1,2,4-triazin-6-yl]-2,3-dihydrobenzofuran-4-ol; formic acid salt]",19,15,–,–,–
"CCN1C[C@@H](O)C[C@@H](Nc2nnc(-c3ccc4c(c3O)CCO4)c(C)n2)C1 [Example 6, (3S,5R)-1-Ethyl-5-[[6-(4-hydroxy-2,3-dihydrobenzofuran-5-yl)-5-methyl-1,2,4-triazin-3-yl]amino]piperidin-3-ol]",28,23,–,–,–
"COC(C)CN1CCC[C@@H](Nc2nnc(-c3ccc4c(c3O)CCO4)c(C)n2)C1 (stereo partly drawn) [Example 7, 5-[5-Methyl-3-[[(3R)-1-(2-methoxypropyl)-3-piperidyl]amino]-1,2,4-triazin-6-yl]-2,3-dihydrobenzofuran-4-ol]",62,40,–,–,–
"Cc1nc(N[C@@H]2CCCN(C3COC3)C2)nnc1-c1ccc2c(c1O)CCO2 [Example 8, 5-[5-Methyl-3-[[(3R)-1-(oxetan-3-yl)-3-piperidyl]amino]-1,2,4-triazin-6-yl]-2,3-dihydrobenzofuran-4-ol]",120,–,–,–,–
"CNC(=O)CCCN1CCC[C@@H](Nc2nnc(-c3ccc4c(c3O)CCO4)c(C)n2)C1 [Example 10, 4-[(3R)-3-[[6-(4-hydroxy-2,3-dihydrobenzofuran-5-yl)-5-methyl-1,2,4-triazin-3-yl]amino]-1-piperidyl]-N-methyl-butanamide]",27,40,2900,8.5,12.2
"Cc1nc(N[C@@H]2CCCN(CCCC(=O)N(C)C)C2)nnc1-c1ccc2c(c1O)CCO2 [Example 12, 4-[(3R)-3-[[6-(4-Hydroxy-2,3-dihydrobenzofuran-5-yl)-5-methyl-1,2,4-triazin-3-yl]amino]-1-piperidyl]-N,N-dimethyl-butanamide]",53,30,–,–,–
Cc1nc(N[C@@H]2CCCN(CCCC(=O)N(C)CCO)C2)nnc1-c1ccc2c(c1O)CCO2 [Example 14],76,–,–,–,–
"Cc1nc(N[C@@H]2CCCN(CCCC(=O)N3CCOCC3)C2)nnc1-c1ccc2c(c1O)CCO2 [Example 16, 4-[(3R)-3-[[6-(4-Hydroxy-2,3-dihydrobenzofuran-5-yl)-5-methyl-1,2,4-triazin-3-yl]amino]-1-piperidyl]-1-morpholino-butan-1-one]",40,46,–,–,–
"Cc1nc(N[C@@H]2CCCN(CCn3cccn3)C2)nnc1-c1ccc2c(c1O)CCO2 [Example 17, 5-[5-Methyl-3-[[(3R)-1-(2-pyrazol-1-ylethyl)-3-piperidyl]amino]-1,2,4-triazin-6-yl]-2,3-dihydrobenzofuran-4-ol]",35,76,–,–,–
"Cc1nc(N[C@@H]2CCCN(CCCc3nnn[nH]3)C2)nnc1-c1ccc2c(c1O)CCO2 [Example 18, 5-[5-Methyl-3-[[(3R)-1-[3-(1H-tetrazol-5-yl)propyl]-3-piperidyl]amino]-1,2,4-triazin-6-yl]-2,3-dihydrobenzofuran-4-ol; formic acid]",23,23,–,–,–
"Cc1nc(N[C@@H]2CCCN(CCCC#N)C2)nnc1-c1ccc2c(c1O)CCO2 [Example 19, 4-[(3R)-3-[[6-(4-Hydroxy-2,3-dihydrobenzofuran-5-yl)-5-methyl-1,2,4-triazin-3-yl]amino]-1-piperidyl]butanenitrile]",20,26,–,–,–
"Cc1nc(N[C@@H]2CCCN(CCCc3ncco3)C2)nnc1-c1ccc2c(c1O)CCO2 [Example 20, 5-[5-Methyl-3-[[(3R)-1-(3-oxazol-2-ylpropyl)-3-piperidyl]amino]-1,2,4-triazin-6-yl]-2,3-dihydrobenzofuran-4-ol]",16,18,–,–,–
"Cc1nc(N[C@@H]2CCCN(CCc3nnn[nH]3)C2)nnc1-c1ccc2c(c1O)CCO2 [Example 21, 5-[5-Methyl-3-[[(3R)-1-[2-(1H-tetrazol-5-yl)ethyl]-3-piperidyl]amino]-1,2,4-triazin-6-yl]-2,3-dihydrobenzofuran-4-ol]",20,166,–,–,–
"Cc1nc(N[C@@H]2CCCN(CCCS(C)(=O)=O)C2)nnc1-c1ccc2c(c1O)CCO2 [Example 22, 5-[5-Methyl-3-[[(3R)-1-(3-methylsulfonylpropyl)-3-piperidyl]amino]-1,2,4-triazin-6-yl]-2,3-dihydrobenzofuran-4-ol]",58,54,–,–,–
